Test results taken from the NIST ThermoML archive (doi:10.1021/je5007218).
Numbers after ± are expanded uncertainties.

Experiment: refractive index (Na D-line) (dimensionless)
Conditions: 293.15 K; 101.33 kPa; Liquid; Standard Abbe refractometry

First: CC(C)CO [2-methyl-1-propanol]
Second: CCCCO [butan-1-ol]
The refractive index of the first is lower: 1.39563 ± 0.0004 for the first, 1.39928 ± 0.0004 for the second.

Going from `CC#N` [acetonitrile] to `O` [water], the refractive index falls from 1.34386 ± 0.00035 to 1.33299 ± 0.00035.
